Results taken from ChEMBL document CHEMBL1201862, “PubChem BioAssay data set” (2004).
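Protocol summary: plate cells (96-well), add compound at 5 concentrations, incubate 48 h, interpolate endpoints linearly. GI50 marks 50% less growth.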 Activity calls are given as the source filed them. Cut-off read from the data, not from the text of the source: active = GI50 up to about 1.1 µM and inactive = higher.

Experiments:
Experiment in all cases: DTP human tumour cell line panel, 48 h
XF498 = system: XF498
KM12 = system: KM12
SF-268 = system: SF-268
SF-295 = system: SF-295
NCI-H522 = system: NCI-H522
NCI-H460 = system: NCI-H460
LXFL 529 = system: LXFL 529
M19-MEL = system: M19-MEL
HCT-15 = system: HCT-15
M14 = system: M14
DMS-114 = system: DMS-114
UACC-62 = system: UACC-62
K562 = system: K562
RPMI-8226 = system: RPMI-8226
OVCAR-3 = system: OVCAR-3
SN12C = system: SN12C
OVCAR-4 = system: OVCAR-4
TK-10 = system: TK-10
UACC-257 = system: UACC-257
COLO 205 = system: COLO 205
HCT-116 = system: HCT-116
U-251 = system: U-251
RXF 631 = system: RXF 631
SK-MEL-2 = system: SK-MEL-2
NCI-H23 = system: NCI-H23
DMS-273 = system: DMS-273
SK-OV-3 = system: SK-OV-3
A549 = system: A549
A498 = system: A498
NCI-H226 = system: NCI-H226
OVCAR-8 = system: OVCAR-8
HOP-92 = system: HOP-92
EKVX = system: EKVX
786-0 = system: 786-0
SF-539 = system: SF-539
CCRF-CEM = system: CCRF-CEM
SW-620 = system: SW-620
MOLT-4 = system: MOLT-4
RXF 393 = system: RXF 393
Malme-3M = system: Malme-3M
OVCAR-5 = system: OVCAR-5
UO-31 = system: UO-31
SNB-19 = system: SNB-19
HOP-18 = system: HOP-18
SK-MEL-28 = system: SK-MEL-28
KM-20L2 = system: KM-20L2
SNB-75 = system: SNB-75
HT-29 = system: HT-29
IGROV-1 = system: IGROV-1
SNB-78 = system: SNB-78
LOX IMVI = system: LOX IMVI
ACHN = system: ACHN
SK-MEL-5 = system: SK-MEL-5
HCC 2998 = system: HCC 2998
DLD-1 = system: DLD-1
HOP-62 = system: HOP-62
HL-60 = system: HL-60
SR = system: SR
CAKI-1 = system: CAKI-1

## COc1cc2ccc(/C(C)=N/OC(C)=O)cc2cc1OC
XF498
  GI50: 83.6 µM (inactive)
KM12
  GI50: > 100 µM (inactive)
SF-268
  GI50: 44.4 µM (inactive)
SF-295
  GI50: 49.9 µM (inactive)
NCI-H522
  GI50: 22.4 µM (inactive)
NCI-H460
  GI50: 82.2 µM (inactive)
LXFL 529
  GI50: 95.9 µM (inactive)
M19-MEL
  GI50: > 100 µM (inactive)
HCT-15
  GI50: > 100 µM
M14
  GI50: > 100 µM (inactive)
DMS-114
  GI50: > 100 µM (inactive)
UACC-62
  GI50: 20.8 µM (inactive)
K562
  GI50: 94 µM (inactive)
RPMI-8226
  GI50: 84.7 µM (inactive)
OVCAR-3
  GI50: 34.1 µM (inactive)
SN12C
  GI50: 49.5 µM (inactive)
OVCAR-4
  GI50: > 100 µM (inactive)
TK-10
  GI50: 44.8 µM (inactive)
UACC-257
  GI50: > 100 µM (inactive)
COLO 205
  GI50: > 100 µM (inactive)
HCT-116
  GI50: > 100 µM (inactive)
U-251
  GI50: 86.9 µM (inactive)
RXF 631
  GI50: 97.7 µM (inactive)
SK-MEL-2
  GI50: 81.3 µM (inactive)
NCI-H23
  GI50: > 100 µM (inactive)
DMS-273
  GI50: 73.8 µM (inactive)
SK-OV-3
  GI50: > 100 µM (inactive)
A549
  GI50: > 100 µM (inactive)
A498
  GI50: 22.8 µM (inactive)
NCI-H226
  GI50: 53.6 µM (inactive)
OVCAR-8
  GI50: > 100 µM (inactive)
HOP-92
  GI50: 51.3 µM (inactive)
EKVX
  GI50: 3.58 µM (inactive)
786-0
  GI50: > 100 µM (inactive)
SF-539
  GI50: 77.1 µM (inactive)
CCRF-CEM
  GI50: 66.5 µM (inactive)
SW-620
  GI50: > 100 µM (inactive)
MOLT-4
  GI50: 39.7 µM (inactive)
RXF 393
  GI50: 25.4 µM (inactive)
Malme-3M
  GI50: > 100 µM (inactive)
OVCAR-5
  GI50: 63.4 µM (inactive)
UO-31
  GI50: 34.7 µM (inactive)
SNB-19
  GI50: > 100 µM (inactive)
HOP-18
  GI50: 58.2 µM (inactive)
SK-MEL-28
  GI50: > 100 µM (inactive)
KM-20L2
  GI50: > 100 µM (inactive)
SNB-75
  GI50: 5.81 µM (inactive)
HT-29
  GI50: 64.3 µM (inactive)
IGROV-1
  GI50: > 100 µM (inactive)
SNB-78
  GI50: 92.9 µM (inactive)
LOX IMVI
  GI50: > 100 µM (inactive)
ACHN
  GI50: 65.3 µM (inactive)

## C[N+](C)(C)CC(=O)N/N=c1\cc(C(=O)Nc2ccc(N=O)cc2C#N)oc2cc(O)ccc12
XF498
  GI50: > 100 µM (inactive)
KM12
  GI50: > 100 µM (inactive)
SF-268
  GI50: > 100 µM (inactive)
SF-295
  GI50: > 100 µM (inactive)
NCI-H522
  GI50: > 100 µM (inactive)
SK-MEL-5
  GI50: > 100 µM (inactive)
NCI-H460
  GI50: > 100 µM (inactive)
LXFL 529
  GI50: > 100 µM (inactive)
HCC 2998
  GI50: > 100 µM (inactive)
M19-MEL
  GI50: > 100 µM (inactive)
HCT-15
  GI50: > 100 µM
DLD-1
  GI50: > 100 µM (inactive)
M14
  GI50: > 100 µM (inactive)
DMS-114
  GI50: > 100 µM (inactive)
UACC-62
  GI50: > 100 µM (inactive)
K562
  GI50: > 100 µM (inactive)
OVCAR-3
  GI50: > 100 µM (inactive)
SN12C
  GI50: > 100 µM (inactive)
OVCAR-4
  GI50: > 100 µM (inactive)
TK-10
  GI50: > 100 µM (inactive)
UACC-257
  GI50: > 100 µM (inactive)
COLO 205
  GI50: > 100 µM (inactive)
HCT-116
  GI50: > 100 µM (inactive)
U-251
  GI50: > 100 µM (inactive)
RXF 631
  GI50: > 100 µM (inactive)
HOP-62
  GI50: > 100 µM (inactive)
SK-MEL-2
  GI50: > 100 µM (inactive)
NCI-H23
  GI50: > 100 µM (inactive)
DMS-273
  GI50: > 100 µM (inactive)
SK-OV-3
  GI50: > 100 µM (inactive)
HL-60
  GI50: > 100 µM (inactive)
A549
  GI50: > 100 µM (inactive)
A498
  GI50: > 100 µM (inactive)
NCI-H226
  GI50: > 100 µM (inactive)
SR
  GI50: > 100 µM (inactive)
OVCAR-8
  GI50: > 100 µM (inactive)
HOP-92
  GI50: > 100 µM (inactive)
EKVX
  GI50: > 100 µM (inactive)
786-0
  GI50: > 100 µM (inactive)
SF-539
  GI50: > 100 µM (inactive)
CCRF-CEM
  GI50: > 100 µM (inactive)
SW-620
  GI50: > 100 µM (inactive)
MOLT-4
  GI50: > 100 µM (inactive)
RXF 393
  GI50: > 100 µM (inactive)
Malme-3M
  GI50: > 100 µM (inactive)
OVCAR-5
  GI50: > 100 µM (inactive)
UO-31
  GI50: 72.3 µM (inactive)
SNB-19
  GI50: > 100 µM (inactive)
HOP-18
  GI50: > 100 µM (inactive)
SK-MEL-28
  GI50: > 100 µM (inactive)
KM-20L2
  GI50: > 100 µM (inactive)
SNB-75
  GI50: > 100 µM (inactive)
HT-29
  GI50: > 100 µM (inactive)
IGROV-1
  GI50: > 100 µM (inactive)
SNB-78
  GI50: > 100 µM (inactive)
LOX IMVI
  GI50: > 100 µM (inactive)
CAKI-1
  GI50: > 100 µM (inactive)
ACHN
  GI50: > 100 µM (inactive)
